Measured values reported in patent US20170347654A1, “Herbicidal Compounds” (SYNGENTA PARTICIPATIONS AG, priority 2014, published 2017).

Assays:
Assay in all cases: Post-emergence efficacy (glasshouse)
Type in all cases: in vivo
Details in all cases: evaluated after 13 days
Setaria faberi (SETFA) = test system: Setaria faberi (SETFA)
Procedure: (§1) Seeds of a variety of test species (such as, for example, Solanum nigrum (SOLNI), Amaranthus retoflexus (AMARE), Setaria faberi (SETFA), Echinochloa crusgalli (ECHCG), Ipomoea hederacea (IPOHE) and Lolium perenne (LOLPE)) are sown in standard soil in pots. After 8 days cultivation (post-emergence) under controlled conditions in a glasshouse (at 24/16° C., day/night; 14 hours light; 65% humidity), the plants are sprayed with an aqueous spray solution derived from the formulation of the technical active ingredient in acetone/water (50:50) solution containing 0.5% Tween 20 (polyoxyethylene sorbitan monolaurate, CAS RN 9005-64-5). Compounds are applied at 1000 and 62.5 g/ha. The test plants are then grown under controlled conditions in a glasshouse (at 24/16° C., day/night; 14 hours light; 65% humidity) and watered twice daily. After 13 days, the test is evaluated for the percentage damage caused to the plant. The biological activities are assessed on a five point scale (5=80-100%; 4=60-79%; 3=40-59%; 2=20-39%; 1=0-19%).

[1] = test system: Amaranthus retoflexus (AMARE)
Procedure: as §1

[2] = test system: Ipomoea hederacea (IPOHE)
Procedure: as §1

Lolium perenne (LOLPE) = test system: Lolium perenne (LOLPE)
Procedure: as §1

Solanum nigrum (SOLNI) = test system: Solanum nigrum (SOLNI)
Procedure: as §1

[3] = test system: Echinochloa crusgalli (ECHCG)
Procedure: as §1

Row | Structure (SMILES) | percentage damage caused to the plant, SETFA (five point scale) (Setaria faberi (SETFA); 62.5 g/ha) | percentage damage caused to the plant, SETFA (five point scale) (Setaria faberi (SETFA); 1000 g/ha) | percentage damage caused to the plant, AMARE (five point scale) ([1]; 62.5 g/ha) | percentage damage caused to the plant, AMARE (five point scale) ([1]; 1000 g/ha) | percentage damage caused to the plant, IPOHE (five point scale) ([2]; 62.5 g/ha) | percentage damage caused to the plant, IPOHE (five point scale) ([2]; 1000 g/ha) | percentage damage caused to the plant, LOLPE (five point scale) (Lolium perenne (LOLPE); 62.5 g/ha) | percentage damage caused to the plant, LOLPE (five point scale) (Lolium perenne (LOLPE); 1000 g/ha) | percentage damage caused to the plant, SOLNI (five point scale) (Solanum nigrum (SOLNI); 62.5 g/ha) | percentage damage caused to the plant, SOLNI (five point scale) (Solanum nigrum (SOLNI); 1000 g/ha) | percentage damage caused to the plant, ECHCG (five point scale) ([3]; 62.5 g/ha) | percentage damage caused to the plant, ECHCG (five point scale) ([3]; 1000 g/ha)
1 | C#CCn1c(=O)c(-c2c(F)ccc(Cl)c2OCc2ccccc2)c(O)c2scnc21 [Compound 1.007] | 5 (5=80-100%) | 5 (5=80-100%) | 5 (5=80-100%) | 5 (5=80-100%) | 5 (5=80-100%) | 5 (5=80-100%) | 5 (5=80-100%) | 5 (5=80-100%) | 5 (5=80-100%) | 5 (5=80-100%) | 5 (5=80-100%) | 5 (5=80-100%)
2 | O=c1c(-c2c(F)ccc(Cl)c2OCc2ccccc2)c(O)c2scnc2n1CC(F)F [Compound 1.027] | 3 (3=40-59%) | 5 (5=80-100%) | 5 (5=80-100%) | 5 (5=80-100%) | 5 (5=80-100%) | 5 (5=80-100%) | 4 (4=60-79%) | 5 (5=80-100%) | 5 (5=80-100%) | 5 (5=80-100%) | 3 (3=40-59%) | 5 (5=80-100%)
3 | O=c1c(-c2c(C(F)(F)F)ccc(Cl)c2OCc2ccccc2)c(O)c2scnc2n1CC(F)F [Compound 1.029] | 2 (2=20-39%) | 5 (5=80-100%) | 4 (4=60-79%) | 5 (5=80-100%) | 4 (4=60-79%) | 5 (5=80-100%) | 2 (2=20-39%) | 5 (5=80-100%) | 5 (5=80-100%) | 5 (5=80-100%) | 3 (3=40-59%) | 5 (5=80-100%)
4 | Cn1c(=O)c(-c2c(Cl)ccc(Cl)c2OCc2ccccc2)c(O)c2scnc21 [Compound 1.011] | 2 (2=20-39%) | 5 (5=80-100%) | 4 (4=60-79%) | 5 (5=80-100%) | 5 (5=80-100%) | 5 (5=80-100%) | 2 (2=20-39%) | 5 (5=80-100%) | 5 (5=80-100%) | 5 (5=80-100%) | 3 (3=40-59%) | 5 (5=80-100%)
5 | Cn1c(=O)c(-c2c(F)ccc(Cl)c2OCc2ccccc2)c(O)c2scnc21 [Compound 1.017] | 1 (1=0-19%) | 5 (5=80-100%) | 4 (4=60-79%) | 5 (5=80-100%) | 5 (5=80-100%) | 5 (5=80-100%) | 4 (4=60-79%) | 5 (5=80-100%) | 5 (5=80-100%) | 5 (5=80-100%) | 2 (2=20-39%) | 5 (5=80-100%)
6 | O=c1c(-c2c(Cl)ccc(Cl)c2OCc2ccccc2)c(O)c2scnc2n1CC(F)F [Compound 1.021] | 4 (4=60-79%) | 5 (5=80-100%) | 5 (5=80-100%) | 5 (5=80-100%) | 5 (5=80-100%) | 5 (5=80-100%) | 4 (4=60-79%) | 5 (5=80-100%) | 5 (5=80-100%) | 5 (5=80-100%) | 4 (4=60-79%) | 5 (5=80-100%)
7 | C#CCn1c(=O)c(-c2c(Cl)ccc(Cl)c2OCc2ccccc2)c(O)c2scnc21 [Compound 1.001, 6-(2-benzyloxy-3,6-dichloro-phenyl)-7-hydroxy-4-prop-2-ynyl-thiazolo[4,5-b]pyridin-5-one] | 5 (5=80-100%) | 5 (5=80-100%) | 5 (5=80-100%) | 5 (5=80-100%) | 5 (5=80-100%) | 5 (5=80-100%) | 5 (5=80-100%) | 5 (5=80-100%) | 5 (5=80-100%) | 5 (5=80-100%) | 5 (5=80-100%) | 5 (5=80-100%)
8 | C#CCn1c(=O)c(-c2c(C(F)(F)F)ccc(Cl)c2OCc2ccccc2)c(O)c2scnc21 [Compound 1.009] | 5 (5=80-100%) | 5 (5=80-100%) | 5 (5=80-100%) | 5 (5=80-100%) | 5 (5=80-100%) | 5 (5=80-100%) | 5 (5=80-100%) | 5 (5=80-100%) | 5 (5=80-100%) | 5 (5=80-100%) | 5 (5=80-100%) | 5 (5=80-100%)
9 | Cn1c(=O)c(-c2c(C(F)(F)F)ccc(Cl)c2OCc2ccccc2)c(O)c2scnc21 [Compound 1.019] | 3 (3=40-59%) | 5 (5=80-100%) | 4 (4=60-79%) | 5 (5=80-100%) | 5 (5=80-100%) | 5 (5=80-100%) | 3 (3=40-59%) | 5 (5=80-100%) | 5 (5=80-100%) | 5 (5=80-100%) | 3 (3=40-59%) | 5 (5=80-100%)
